Reference: patent US20250188069A1, “COMPOUNDS AND METHODS FOR DEGRADING CASEIN KINASE 1 ALPHA” (PIN THERAPEUTICS, INC., priority 2022, published 2025)
Where a name gives a salt, the structure may show the parent alone.

Tested on: MV-4-11 cells
Test: AML cell viability assay (RealTime-Glo)
Format: cell-based
Settings: Homo sapiens, MV4-11; IC50 class; MV-4-11 cells, RealTime-Glo after 44 hrs of treatment (TABLE 4); read-out: Cell viability classification

IC50 [nM]	Structure (SMILES)
100 to 1000	O=C1CCC(N2Cc3c(cccc3N(CCC3CC3)[C@H]3CC[C@@H](NCC4(F)CCC4)CC3)C2=O)C(=O)N1 (stereo partly drawn) [Compound 613A, 3-{4-[(2-cyclopropylethyl)[(1s,4s)-4-{[(1-fluorocyclobutyl)methyl]amino}cyclohexyl]amino]-1-oxo-3H-isoindol-2-yl}piperidine-2,6-dione]
100 to 1000	O=C1CCC(N2Cc3c(cccc3N(CCC3CC3)[C@H]3CC[C@H](NCC4(C(F)(F)F)CCC4)CC3)C2=O)C(=O)N1 (stereo partly drawn) [Compound 614, 3-{4-[(2-cyclopropylethyl)[(1r,4r)-4-({[1-(trifluoromethyl)cyclobutyl]methyl}amino)cyclohexyl]amino]-1-oxo-3H-isoindol-2-yl}piperidine-2,6-dione; trifluoro acetate]
> 1000	O=C1CCC(N2Cc3c(cccc3N(CCC3CC3)[C@H]3CC[C@@H](NCC4(C(F)(F)F)CCC4)CC3)C2=O)C(=O)N1 (stereo partly drawn) [Compound 614A, 3-{4-[(2-cyclopropylethyl)[(1s,4s)-4-({[1-(trifluoromethyl)cyclobutyl]methyl}amino)cyclohexyl]amino]-1-oxo-3H-isoindol-2-yl}piperidine-2,6-dione; trifluoro acetate]
100 to 1000	O=C1CCC(N2Cc3c(cccc3N(CCC3CC3)[C@H]3CC[C@@H](NCC4(F)COC4)CC3)C2=O)C(=O)N1 (stereo partly drawn) [Compound 616A, 3-{4-[(2-cyclopropylethyl)[(1s,4s)-4-{[(3-fluorooxetan-3-yl)methyl]amino}cyclohexyl]amino]-1-oxo-3H-isoindol-2-yl}piperidine-2,6-dione; trifluoroacetate]
100 to 1000	O=C1CCC(N2Cc3c(ccc(F)c3N(CCC3CC3)[C@H]3CC[C@H](NCC4(C(F)(F)F)CC4)CC3)C2=O)C(=O)N1 (stereo partly drawn) [Compound 619, 3-(4-((2-cyclopropylethyl)(4-(((1-(trifluoromethyl)cyclopropyl)methyl)amino)cyclohexyl)amino)-5-fluoro-1-oxoisoindolin-2-yl)piperidine-2,6-dione]
> 1000	O=C1CCC(N2Cc3c(N(CCC4CC4)[C@H]4CC[C@H](NCC5(C(F)(F)F)CC5)CC4)ccc(F)c3C2=O)C(=O)N1 (stereo partly drawn) [Compound 627, 3-{4-[(2-cyclopropylethyl)[(1r,4r)-4-({[1-(trifluoromethyl)cyclopropyl]methyl}amino)cyclohexyl]amino]-7-fluoro-1-oxo-3H-isoindol-2-yl}piperidine-2,6-dione]
> 1000	O=C1CCC(N2Cc3c(N(CCC4CC4)[C@H]4CC[C@@H](NCC5(C(F)(F)F)CC5)CC4)ccc(F)c3C2=O)C(=O)N1 (stereo partly drawn) [Compound 627A, 3-{4-[(2-cyclopropylethyl)[(1s,4s)-4-({[1-(trifluoromethyl)cyclopropyl]methyl}amino)cyclohexyl]amino]-7-fluoro-1-oxo-3H-isoindol-2-yl}piperidine-2,6-dione]
100 to 1000	O=C1CCC(N2Cc3c(cccc3N(CCCCC(F)(F)F)[C@H]3CC[C@H](NCC4(C(F)(F)F)CC4)CC3)C2=O)C(=O)N1 (stereo partly drawn) [Compound 628, 3-(1-oxo-4-{[(1r,4r)-4-({[1-(trifluoromethyl)cyclopropyl]methyl}amino)cyclohexyl](5,5,5-trifluoropentyl)amino}-3H-isoindol-2-yl)piperidine-2,6-dione; trifluoroacetate]
> 1000	O=C1CCC(N2Cc3c(cccc3N(CCCCC(F)(F)F)[C@H]3CC[C@@H](NCC4(C(F)(F)F)CC4)CC3)C2=O)C(=O)N1 (stereo partly drawn) [Compound 628A, 3-(1-oxo-4-{[(1s,4s)-4-({[1-(trifluoromethyl)cyclopropyl]methyl}amino)cyclohexyl](5,5,5-trifluoropentyl)amino}-3H-isoindol-2-yl)piperidine-2,6-dione; trifluoroacetate]
> 1000	O=C1CCC(N2Cc3c(cccc3N(CCCCC(F)(F)F)[C@H]3CC[C@@H](NCCC(F)(F)F)CC3)C2=O)C(=O)N1 (stereo partly drawn) [Compound 636A, 3-(1-oxo-4-{[(1s,4s)-4-[(3,3,3-trifluoropropyl)amino]cyclohexyl](5,5,5-trifluoropentyl)amino}-3H-isoindol-2-yl)piperidine-2,6-dione; trifluoroacetate]

Same assay, conditions: Homo sapiens, MV4-11; IC50 class; MV-4-11 cells, RealTime-Glo after 44 hrs of treatment (TABLE 5); read-out: Cell viability classification

IC50 [nM]	Structure (SMILES)
< 100	O=C1CCC(N2Cc3c(cccc3N(CCC3CC3)[C@H]3CC[C@H](NCCCC(F)(F)F)CC3)C2=O)C(=O)N1 (stereo partly drawn) [Compound 642]
> 1000	O=C1CCC(N2Cc3c(cccc3N(CCC3CC3)[C@H]3CC[C@H](NCC(F)(F)C(F)(F)F)CC3)C2=O)C(=O)N1 (stereo partly drawn) [Compound 644]
< 100	O=C1CCC(N2Cc3c(cccc3N(CCC3CC3)[C@H]3CC[C@H](NCCC4(C(F)(F)F)CC4)CC3)C2=O)C(=O)N1 (stereo partly drawn) [Compound 645, 3-{4-[(2-cyclopropylethyl)[(1r,4r)-4-({2-[1-(trifluoromethyl)cyclopropyl]ethyl}amino)cyclohexyl]amino]-1-oxo-3H-isoindol-2-yl}piperidine-2,6-dione trifluoroacetic acid]
< 100	O=C1CCC(N2Cc3c(cccc3N(CCC3CC3)[C@H]3CC[C@H](NCCOC(F)(F)F)CC3)C2=O)C(=O)N1 (stereo partly drawn) [Compound 647]
< 100	CCCN(c1cccc2c1CN(C1CCC(=O)NC1=O)C2=O)[C@H]1CC[C@H](NCCC(F)(F)F)CC1 (stereo partly drawn) [Compound 648, 3-(1-oxo-4-{propyl[(1r,4r)-4-[(3,3,3-trifluoropropyl)amino]cyclohexyl]amino}-3H-isoindol-2-yl)piperidine-2,6-dione trifluoroacetic acid]
100 to 1000	O=C1CCC(N2Cc3c(cccc3N(CC3CCC3)[C@H]3CC[C@H](NCCC(F)(F)F)CC3)C2=O)C(=O)N1 (stereo partly drawn) [Compound 649, 3-{4-[(cyclobutylmethyl)[(1r,4r)-4-[(3,3,3-trifluoropropyl)amino]cyclohexyl]amino]-1-oxo-3H-isoindol-2-yl}piperidine-2,6-dione trifluoroacetic acid]
100 to 1000	O=C1CCC(N2Cc3c(cccc3N(CC3CC3)[C@H]3CC[C@H](NCC4(C(F)(F)F)CC4)CC3)C2=O)C(=O)N1 (stereo partly drawn) [Compound 653, 3-(4-((cyclopropylmethyl)((1r,4r)-4-(((1-(trifluoromethyl)cyclopropyl)methyl)amino)cyclohexyl)amino)-1-oxoisoindolin-2-yl)piperidine-2,6-dione formate]
100 to 1000	O=C1CCC(N2Cc3c(cccc3N(CC3CCC3)[C@H]3CC[C@H](NCC4(C(F)(F)F)CC4)CC3)C2=O)C(=O)N1 (stereo partly drawn) [Compound 654, 3-(4-((cyclobutylmethyl)((1r,4r)-4-(((1-(trifluoromethyl)cyclopropyl)methyl)amino)cyclohexyl)amino)-1-oxoisoindolin-2-yl)piperidine-2,6-dione]
100 to 1000	O=C1CCC(N2Cc3c(cccc3N(CCC3CC3)C3CCC4(CC3)COCCN4)C2=O)C(=O)N1 (stereo not drawn) [Compound 679, 3-(4-((2-cyclopropylethyl)(4-oxa-1-azaspiro[5.5]undecan-9-yl)amino)-1-oxoisoindolin-2-yl)piperidine-2,6-dione]
100 to 1000	CN(CCC(F)F)[C@H]1CC[C@@H](N(CCC2CC2)c2cccc3c2CN(C2CCC(=O)NC2=O)C3=O)CC1 (stereo partly drawn) [Compound 683A, 3-(4-((2-cyclopropylethyl)((1s,4s)-4-((3,3-difluoropropyl)(methyl)amino)cyclohexyl)amino)-1-oxoisoindolin-2-yl)piperidine-2,6-dione bis(2,2,2-trifluoroacetate)]
100 to 1000	O=C1CCC(N2Cc3c(cccc3N(CCC3CC3)[C@H]3CC[C@H](CNCCC(F)(F)F)CC3)C2=O)C(=O)N1 (stereo partly drawn) [Compound 708, 3-(4-((2-cyclopropylethyl)((1r,4r)-4-(((3,3,3-trifluoropropyl)amino)methyl)cyclohexyl)amino)-1-oxoisoindolin-2-yl)piperidine-2,6-dione]
< 100	O=C1CCC(N2Cc3c(cccc3N(CCC3CC3)[C@H]3CC[C@@H](CNCCC(F)(F)F)CC3)C2=O)C(=O)N1 (stereo partly drawn) [Compound 708A, 3-(4-((2-cyclopropylethyl)((1s,4s)-4-(((3,3,3-trifluoropropyl)amino)methyl)cyclohexyl)amino)-1-oxoisoindolin-2-yl)piperidine-2,6-dione]
100 to 1000	O=C1CCC(N2Cc3c(cccc3N(CCC3CC3)[C@H]3CC[C@H](N4CCC5(C4)CC5(F)F)CC3)C2=O)C(=O)N1 (stereo partly drawn) [Compound 711, 3-(4-((2-cyclopropylethyl)((1r,4r)-4-(1,1-difluoro-5-azaspiro[2.4]heptan-5-yl)cyclohexyl)amino)-1-oxoisoindolin-2-yl)piperidine-2,6-dione 2,2,2-trifluoroacetate]
> 1000	O=C1CCC(N2Cc3c(cccc3N(CCC3CC3)[C@H]3CC[C@@H](N4CCC5(C4)CC5(F)F)CC3)C2=O)C(=O)N1 (stereo partly drawn) [Compound 711A, 3-(4-((2-cyclopropylethyl)((1s,4s)-4-(1,1-difluoro-5-azaspiro[2.4]heptan-5-yl)cyclohexyl)amino)-1-oxoisoindolin-2-yl)piperidine-2,6-dione 2,2,2-trifluoroacetate]
100 to 1000	O=C1CCC(N2Cc3c(cccc3N(CCC3CC3)[C@H]3CC[C@H](N4CC[C@H](C(F)(F)F)C4)CC3)C2=O)C(=O)N1 (stereo partly drawn) [Compound 712, 3-(4-((2-cyclopropylethyl)((1S,4r)-4-((S)-3-(trifluoromethyl)pyrrolidin-1-yl)cyclohexyl)amino)-1-oxoisoindolin-2-yl)piperidine-2,6-dione 2,2,2-trifluoroacetate]
> 1000	O=C1CCC(N2Cc3c(cccc3N(CCC3CC3)[C@H]3CC[C@@H](N4CC[C@H](C(F)(F)F)C4)CC3)C2=O)C(=O)N1 (stereo partly drawn) [Compound 712A, 3-(4-((2-cyclopropylethyl)((1R,4s)-4-((S)-3-(trifluoromethyl)pyrrolidin-1-yl)cyclohexyl)amino)-1-oxoisoindolin-2-yl)piperidine-2,6-dione 2,2,2-trifluoroacetate]
100 to 1000	O=C1CCC(N2Cc3c(cccc3N(CCC3CC3)[C@H]3CC[C@H](N4CC[C@@H](C(F)(F)F)C4)CC3)C2=O)C(=O)N1 (stereo partly drawn) [Compound 713, 3-(4-((2-cyclopropylethyl)((1R,4r)-4-((R)-3-(trifluoromethyl)pyrrolidin-1-yl)cyclohexyl)amino)-1-oxoisoindolin-2-yl)piperidine-2,6-dione bis(2,2,2-trifluoroacetate)]
